In patent US6737383B1, “Herbicidal oxadiazolidines” (priority 1999, dated 2004):

Columns and labels:
[1] = test system: wheat; experiment: Test B pre/postemergence wheat; type: in vivo, Triticum aestivum
How it was run: (§1)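 Herbicidal effect was estimated by eye on a ten-point control scale after plants spent twelve to sixteen days in a greenhouse following soil or foliar treatment. Foliar sprays targeted plants at one to four leaves; all doses were formulated in a non-phytotoxic solvent with surfactant.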

[2] = test system: soybean; experiment: Test B pre/postemergence soybean; type: in vivo, Glycine max
How it was run: as §1

[3] = test system: crabgrass; experiment: Test B pre/postemergence crabgrass; type: in vivo, Digitaria sanguinalis
How it was run: as §1

[4] = test system: pigweed; experiment: Test B pre/postemergence pigweed; type: in vivo, Amaranthus retroflexus
How it was run: as §1

[5] = test system: velvetleaf; experiment: Test B pre/postemergence velvetleaf; type: in vivo, Abutilon theophrasti
How it was run: as §1

[6] = test system: surinam grass; experiment: Test B pre/postemergence surinam grass; type: in vivo, Brachiaria decumbens
How it was run: as §1

[7] = test system: blackgrass; experiment: Test B pre/postemergence blackgrass; type: in vivo, Alopecurus myosuroides
How it was run: as §1

[8] = test system: cocklebur; experiment: Test B pre/postemergence cocklebur; type: in vivo, Xanthium strumarium
How it was run: as §1

[9] = test system: sugar beet; experiment: Test B pre/postemergence sugar beet; type: in vivo, Beta vulgaris
How it was run: as §1

[10] = test system: purple nutsedge; experiment: Test B pre/postemergence purple nutsedge; type: in vivo, Cyperus rotundus
How it was run: as §1

[11] = test system: morningglory; experiment: Test B pre/postemergence morningglory; type: in vivo, Ipomoea hederacea
How it was run: as §1

[12] = test system: rape; experiment: Test B pre/postemergence rape; type: in vivo, Brassica napus
How it was run: as §1

[13] = test system: giant foxtail; experiment: Test B pre/postemergence giant foxtail; type: in vivo, Setaria faberii
How it was run: as §1

[14] = test system: corn; experiment: Test B pre/postemergence corn; type: in vivo, Zea mays
How it was run: as §1

[15] = test system: wild oat; experiment: Test B pre/postemergence wild oat; type: in vivo, Avena fatua
How it was run: as §1

[16] = test system: bedstraw; experiment: Test B pre/postemergence bedstraw; type: in vivo, Galium aparine; conditions: Preemergence; for Bedstraw plant response rating: scale 0 to 10, 0 is no effect, 10 is complete control
How it was run: as §1

[17] = Postemergence, Rate 62 g/ha, scale of 0 to 10, 0 is no effect, 10 is complete control
[18] = Postemergence, Rate 125 g/ha, scale 0 to 10, 0 is no effect, 10 is complete control
[19] = Postemergence, Rate 500 g/ha, scale 0 to 10, 0 is no effect, 10 is complete control
[20] = Preemergence, Rate 62 g/ha, scale of 0 to 10 where 0 is no effect and 10 is complete control
[21] = Preemergence, Rate 125 g/ha, scale 0 to 10, 0 is no effect, 10 is complete control
[22] = Preemergence, Rate 500 g/ha, scale of 0 to 10 where 0 is no effect and 10 is complete control
[23] = Rate 250 g/ha, Postemergence, scale of 0 to 10 where 0 is no effect and 10 is complete control

CC(C)N(C(=O)n1oc(=O)n(COCc2ccccc2)c1=O)c1ccc(F)cc1F [Compound 520]
0: Wheat plant response rating [1, 17] | Wheat plant response rating [1, 18] | Plant response rating, Wheat [1, 19] | Plant response rating, Wheat [1, 20] | Wheat plant response rating [1, 21] | Wheat plant response rating (0 to 10 scale) ([1]; Preemergence, Rate 250 g/ha) | Wheat plant response rating [1, 22] | Plant response rating, Wheat [1, 23] | Plant response rating, Soybean [2, 20] | Soybean plant response rating [2, 21] | Soybean plant response rating (0 to 10 scale) ([2]; Preemergence, Rate 250 g/ha) | Soybean plant response rating [2, 22] | Redroot pigweed plant response rating [4, 17] | Plant response rating, Redroot pigweed [4, 19] | Plant response rating, Redroot pigweed [4, 20] | Redroot pigweed plant response rating [4, 21] | Redroot pigweed plant response rating (0 to 10 scale) ([4]; Preemergence, Rate 250 g/ha) | Redroot pigweed plant response rating [4, 22] | Plant response rating, Velvetleaf [5, 20] | Velvetleaf plant response rating [5, 21] | Velvetleaf plant response rating (0 to 10 scale) ([5]; Preemergence, Rate 250 g/ha) | Velvetleaf plant response rating [5, 22] | B. signalgrass plant response rating [6, 17] | B. signalgrass plant response rating [6, 18] | Plant response rating, B. signalgrass [6, 20] | B. signalgrass plant response rating [6, 21] | B. signalgrass plant response rating (0 to 10 scale, 0 is no effect, 10 is complete control) ([6]; Preemergence, Rate 250 g/ha) | B. signalgrass plant response rating ([6]; Preemergence, Rate 500 g/ha, scale 0 to 10, 0 is no effect, 10 is complete control) | Plant response rating, B. signalgrass [6, 23] | Blackgrass plant response rating [7, 17] | Blackgrass plant response rating [7, 18] | Plant response rating, Blackgrass [7, 20] | Blackgrass plant response rating [7, 21] | Blackgrass plant response rating (0 to 10 scale) ([7]; Preemergence, Rate 250 g/ha) | Blackgrass plant response rating [7, 22] | Plant response rating, Blackgrass [7, 23] | Cocklebur plant response rating [8, 17] | Cocklebur plant response rating [8, 18] | Plant response rating, Cocklebur [8, 19] | Plant response rating, Cocklebur [8, 20] | Cocklebur plant response rating [8, 21] | Cocklebur plant response rating (0 to 10 scale) ([8]; Preemergence, Rate 250 g/ha) | Cocklebur plant response rating [8, 22] | Plant response rating, Cocklebur [8, 23] | Sugarbeets plant response rating [9, 17] | Sugarbeets plant response rating [9, 18] | Plant response rating, Sugarbeets [9, 20] | Sugarbeets plant response rating [9, 21] | Sugarbeets plant response rating (0 to 10 scale) ([9]; Preemergence, Rate 250 g/ha) | Sugarbeets plant response rating [9, 22] | Plant response rating, Sugarbeets [9, 23] | Nutsedge plant response rating [10, 17] | Nutsedge plant response rating [10, 18] | Plant response rating, Nutsedge [10, 19] | Plant response rating, Nutsedge [10, 20] | Nutsedge plant response rating [10, 21] | Nutsedge plant response rating (0 to 10 scale) ([10]; Preemergence, Rate 250 g/ha) | Nutsedge plant response rating [10, 22] | Plant response rating, Nutsedge [10, 23] | Plant response rating, Morningglory [11, 20] | Morningglory plant response rating [11, 21] | Morningglory plant response rating (0 to 10 scale) ([11]; Preemergence, Rate 250 g/ha) | Morningglory plant response rating [11, 22] | Rape plant response rating [12, 17] | Rape plant response rating [12, 18] | Plant response rating, Rape [12, 20] | Rape plant response rating [12, 21] | Rape plant response rating (0 to 10 scale) ([12]; Preemergence, Rate 250 g/ha) | Rape plant response rating [12, 22] | Plant response rating, Rape [12, 23] | Corn plant response rating [14, 17] | Corn plant response rating [14, 18] | Plant response rating, Corn [14, 19] | Plant response rating, Corn [14, 20] | Corn plant response rating [14, 21] | Corn plant response rating (0 to 10 scale) ([14]; Preemergence, Rate 250 g/ha) | Corn plant response rating [14, 22] | Plant response rating, Corn [14, 23] | Wild oats plant response rating [15, 17] | Wild oats plant response rating [15, 18] | Plant response rating, Wild oats [15, 19] | Plant response rating, Wild oats [15, 20] | Wild oats plant response rating [15, 21] | Wild oats plant response rating (0 to 10 scale) ([15]; Preemergence, Rate 250 g/ha) | Wild oats plant response rating [15, 22] | Plant response rating, Wild oats [15, 23] | Plant response rating, Bedstraw ([16]; Rate 62 g/ha, scale of 0 to 10 where 0 is no effect and 10 is complete control) | Bedstraw plant response rating ([16]; Rate 125 g/ha) | Bedstraw plant response rating (0 to 10 scale) ([16]; Rate 250 g/ha) | Bedstraw plant response rating ([16]; Rate 500 g/ha)
3: Crabgrass plant response rating [3, 18] | Redroot pigweed plant response rating [4, 18] | Velvetleaf plant response rating [5, 17] | Morningglory plant response rating [11, 17]
4: Soybean plant response rating [2, 18] | Plant response rating, Soybean [2, 19] | Plant response rating, Soybean [2, 23] | Plant response rating, Crabgrass [3, 23] | Velvetleaf plant response rating [5, 18] | Plant response rating, Velvetleaf [5, 23] | Morningglory plant response rating [11, 18] | Plant response rating, Morningglory [11, 23] | Giant foxtail plant response rating [13, 18] | Plant response rating, Giant foxtail [13, 23]
10: Crabgrass plant response rating (0 to 10 scale) ([3]; Preemergence, Rate 250 g/ha) | Crabgrass plant response rating [3, 22] | Plant response rating, Morningglory [11, 19] | Giant foxtail plant response rating [13, 21] | Giant foxtail plant response rating (0 to 10 scale) ([13]; Preemergence, Rate 250 g/ha) | Giant foxtail plant response rating [13, 22]
6: Plant response rating, Velvetleaf [5, 19] | Plant response rating, Blackgrass [7, 19]
9: Plant response rating, Crabgrass [3, 19] | Plant response rating, Crabgrass [3, 20] | Crabgrass plant response rating [3, 21] | Plant response rating, Rape [12, 19] | Plant response rating, Giant foxtail [13, 19] | Plant response rating, Giant foxtail [13, 20]
2: Soybean plant response rating [2, 17] | Crabgrass plant response rating [3, 17] | Plant response rating, B. signalgrass [6, 19] | Plant response rating, Sugarbeets [9, 19] | Giant foxtail plant response rating [13, 17]
